Results on one compound are retold here after patent US20140274992A1, “CEFTOLOZANE PHARMACEUTICAL COMPOSITIONS” (Cubist Pharmaceuticals, Inc., priority 2013, published 2014).

This data set is described as follows: Intrinsic pH of ceftolozane in solution. It counts as physicochemical. Particulars: solution (2%). The protocol:
A formulation close to physiologic pH was targeted. This necessitates an alkalizing agent due to intrinsic pH 1.92 of ceftolozane in solution (2%). The initial study of alkalizing agents included sodium hydroxide, L-arginine, tris, sodium bicarbonate, meglumine, diethanolamine, and triethanolamine. Samples containing 100 mg ceftolozane sulfate, 22.9 mg sodium chloride, 200 mg maltose, and 2 mg citric acid anhydrous were prepared and adjusted to about pH 4. The samples were lyophilized and powders stored at 70° C. for 3 days, 60° C. for 3, 6 and 9 days and at 40° C. for one month. The stored samples were then analyzed for ceftolozane content.

As for `Cn1c(N)c(NC(=O)NCCN)c[n+]1CC1=C(C(=O)[O-])N2C(=O)[C@@H](NC(=O)/C(=N\OC(C)(C)C(=O)O)c3nsc(N)n3)[C@H]2SC1` [ceftolozane], the “intrinsic pH of ceftolozane in solution” value is 1.92.
